Test results reported in ChEMBL document CHEMBL4385634, “Melanogenic inhibitory effects of Triangularin in B16F0 melanoma cells, in vitro and molecular docking studies” (Bioorg Med Chem, 2019).

Assays:
[1] = target: T1, Tyrosinase (Mus musculus) (UniProt P11344); assay: Inhibition of intracellular tyrosinase in mouse B16F0 cells at 25 uM using L-DOPA as substrate preincubated with compound followed by substrate addition and measured after 20 mins by UV-Visible spectrophotometric analysis relative to control; type: cell-based
T1 sequence (whole entry): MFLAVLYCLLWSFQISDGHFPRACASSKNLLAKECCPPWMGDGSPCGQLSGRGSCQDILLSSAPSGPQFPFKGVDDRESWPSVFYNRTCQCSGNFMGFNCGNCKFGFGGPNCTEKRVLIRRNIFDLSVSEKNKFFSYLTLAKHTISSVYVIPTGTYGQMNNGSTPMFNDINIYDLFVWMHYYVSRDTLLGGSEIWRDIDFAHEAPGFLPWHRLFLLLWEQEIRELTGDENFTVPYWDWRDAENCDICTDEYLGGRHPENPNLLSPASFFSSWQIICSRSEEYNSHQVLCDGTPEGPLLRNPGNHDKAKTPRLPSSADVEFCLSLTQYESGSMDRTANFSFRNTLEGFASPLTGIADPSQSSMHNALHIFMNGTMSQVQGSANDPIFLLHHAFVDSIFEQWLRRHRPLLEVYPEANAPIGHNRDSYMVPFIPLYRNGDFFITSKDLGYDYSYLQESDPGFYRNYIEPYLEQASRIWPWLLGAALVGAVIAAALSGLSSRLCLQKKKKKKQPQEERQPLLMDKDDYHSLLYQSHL

B16-F0 = assay: (§1) Cytotoxicity against mouse B16F0 cells incubated for 24 hrs by MTT assay; type: cell-based; settings: b16-f0, 24 h
[2] = as §1; type: cell-based, B16-F0; settings: B16F0 cells, read-out: MNCC
[3] = target: T2, Tyrosinase (Agaricus bisporus) (UniProt O42713); assay: Potency index, ratio of IC50 for KA to IC50 for test compound for inhibition of mushroom tyrosinase diphenolase activity using L-dopa as substrate preincubated for 10 mins followed by substrate addition by UV-Visible spectrophotometric analysis
T2 sequence (whole entry): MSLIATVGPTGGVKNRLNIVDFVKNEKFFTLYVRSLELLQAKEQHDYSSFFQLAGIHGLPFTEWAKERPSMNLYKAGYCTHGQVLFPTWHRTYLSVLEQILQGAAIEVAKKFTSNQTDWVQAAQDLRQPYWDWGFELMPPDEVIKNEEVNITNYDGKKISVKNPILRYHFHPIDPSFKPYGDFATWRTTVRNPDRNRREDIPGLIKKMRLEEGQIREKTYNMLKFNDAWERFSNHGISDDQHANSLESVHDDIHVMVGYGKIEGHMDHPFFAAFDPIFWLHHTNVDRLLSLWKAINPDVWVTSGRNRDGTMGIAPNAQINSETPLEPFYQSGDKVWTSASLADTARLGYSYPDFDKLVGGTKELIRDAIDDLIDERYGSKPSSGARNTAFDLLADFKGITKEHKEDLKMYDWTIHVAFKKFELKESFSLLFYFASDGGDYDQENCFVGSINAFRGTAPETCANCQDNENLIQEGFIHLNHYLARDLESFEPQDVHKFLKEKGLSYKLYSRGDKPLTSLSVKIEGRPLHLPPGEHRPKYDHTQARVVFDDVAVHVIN

Tyrosinase [4] = target: T3, Tyrosinase (Mus musculus, UniProt P11344); assay: Inhibition of tyrosinase in mouse B16F0 cells assessed as reduction in melanin production incubated for 24 hrs by spectrophotometric analysis; type: cell-based
T3 sequence (P11344 whole entry): T1 sequence (whole entry)

Tyrosinase [5] = target: T4, Tyrosinase (Agaricus bisporus, UniProt O42713); assay: Inhibition of mushroom tyrosinase diphenolase activity using L-dopa as substrate preincubated for 10 mins followed by substrate addition by UV-Visible spectrophotometric analysis
T4 sequence (O42713 whole entry): T2 sequence (whole entry)

[6] = target: T1, Tyrosinase (Mus musculus); assay: Inhibition of intracellular tyrosinase in mouse B16F0 cells using L-DOPA as substrate preincubated with compound followed by substrate addition and measured after 20 mins by UV-Visible spectrophotometric analysis relative to control; type: cell-based
[7] = target: T1, Tyrosinase (Mus musculus); assay: Inhibition of intracellular tyrosinase in mouse B16F0 cells at 100 uM using L-DOPA as substrate preincubated with compound followed by substrate addition and measured after 20 mins by UV-Visible spectrophotometric analysis relative to control; type: cell-based
[8] = target: T1, Tyrosinase (Mus musculus); assay: Inhibition of intracellular tyrosinase in mouse B16F0 cells at 1 uM using L-DOPA as substrate preincubated with compound followed by substrate addition and measured after 20 mins by UV-Visible spectrophotometric analysis relative to control; type: cell-based
[9] = target: T1, Tyrosinase (Mus musculus); assay: Inhibition of intracellular tyrosinase in mouse B16F0 cells at 10 uM using L-DOPA as substrate preincubated with compound followed by substrate addition and measured after 20 mins by UV-Visible spectrophotometric analysis relative to control; type: cell-based
[10] = target: T1, Tyrosinase (Mus musculus); assay: Potency index, ratio of IC50 for KA to IC50 for test compound for inhibition of tyrosinase in mouse B16F0 cells assessed as reduction in melanin production incubated for 24 hrs by spectrophotometric analysis; type: cell-based
[11] = target: T1, Tyrosinase (Mus musculus); assay: Potency index, ratio of compound effect to KA effect for inhibition of tyrosinase in mouse B16F0 cells at 10 uM using L-DOPA as substrate; type: cell-based
[12] = target: T1, Tyrosinase (Mus musculus); assay: Potency index, ratio of compound effect to KA effect for inhibition of intracellular tyrosinase in mouse B16F0 cells using L-DOPA as substrate preincubated with compound followed by substrate addition and measured after 20 mins by UV-Visible spectrophotometric analysis; type: cell-based
[13] = target: T1, Tyrosinase (Mus musculus); assay: Inhibition of intracellular tyrosinase in mouse B16F0 cells at 50 uM using L-DOPA as substrate preincubated with compound followed by substrate addition and measured after 20 mins by UV-Visible spectrophotometric analysis relative to control; type: cell-based
[14] = target: T1, Tyrosinase (Mus musculus); assay: Inhibition of intracellular tyrosinase in mouse B16F0 cells at 5 uM using L-DOPA as substrate preincubated with compound followed by substrate addition and measured after 20 mins by UV-Visible spectrophotometric analysis relative to control; type: cell-based
[15] = target: T1, Tyrosinase (Mus musculus); assay: Potency index, ratio of IC50 for KA to IC50 for test compound for inhibition of tyrosinase in mouse B16F0 cells using L-DOPA as substrate by UV-Visible spectrophotometric analysis; type: cell-based
Tyrosinase [16] = target: T3, Tyrosinase
Description: Inhibition of tyrosinase in mouse B16F0 cells using L-DOPA as substrate by UV-Visible spectrophotometric analysis

With `COc1cc(O)c(C(=O)/C=C/c2ccccc2)c(O)c1C` the inhibition [1] was 13%, the Activity (B16-F0) was “Dose-dependent effect” and the MNTC at 24 h [2] was 100 µM. For the same compound, the Ratio IC50 [3] was 2, the IC50 (Tyrosinase [4]) was 25 µM and the IC50 (Tyrosinase [5]) was 63.1 µM. For the same compound, the inhibition [6] was “Dose-dependent effect”, the inhibition [7] was 20.1% and the inhibition [8] was 3.9%. For the same compound, the inhibition [9] was 7.8%, the Ratio IC50 [10] was 8 and the Ratio [11] was 6. The Ratio [12] was 5, the inhibition [13] was 16.2% and the inhibition [14] was 6.1%. For the same compound, the Ratio [15] was 3 and the IC50 (Tyrosinase [16]) was 30.1 µM.
